Substitutions are numbered along the chain they refer to. Names and notes keep the numbering of the source. Values after ≈ are worked out from the molar mass of the structure shown.
B1: Tetracycline resistance protein, class B (Escherichia coli), P02980 (protein)
chain: MNSSTKIALVITLLDAMGIGLIMPVLPTLLREFIASEDIANHFGVLLALYALMQVIFAPWLGKMSDRFGRRPVLLLSLIGASLDYLLLAFSSALWMLYLGRLLSGITGATGAVAASVIADTTSASQRVKWFGWLGASFGLGLIAGPIIGGFAGEISPHSPFFIAALLNIVTFLVVMFWFRETKNTRDNTDTEVGVETQSNSVYITLFKTMPILLIIYFSAQLIGQIPATVWVLFTENRFGWNSMMVGFSLAGLGLLHSVFQAFVAGRIATKWGEKTAVLLGFIADSSAFAFLAFISEGWLVFPVLILLAGGGIALPALQGVMSIQTKSHQQGALQGLLVSLTNATGVIGPLLFAVIYNHSLPIWDGWIWIIGLAFYCIIILLSMTFMLTPQAQGSKQETSA
B2: Tetracycline resistance protein, class B (Escherichia coli), P02980 D190C (protein)
chain: B1 chain with D190C

What was measured:
[1] = tested on: Escherichia coli; test: Antibacterial activity against intact Escherichia coli DH5alpha expressing tetracycline efflux transporter TetA(B) Asp190Cys mutant gene; assay type: functional
[2] = tested on: Escherichia coli; test: Antibacterial activity against intact Escherichia coli DH5alpha; assay type: functional
[3] = tested on: Escherichia coli; test: Antibacterial activity against intact Escherichia coli DH5alpha expressing wild-type tetracycline efflux transporter TetA(B) gene; assay type: functional
[4] = substrate: CN(C)[C@@H]1C(O)=C(C(N)=O)C(=O)[C@@]2(O)C(O)=C3C(=O)c4c(O)cccc4[C@@](C)(O)[C@H]3C[C@@H]12; test: Activity of tetracycline efflux transporter TetA(B) in Escherichia coli DH5alpha membrane vesicles assessed as [3H]tetracycline uptake; assay type: cell membranes
[5] = substrate: CN(C)[C@@H]1C(O)=C(C(N)=O)C(=O)[C@@]2(O)C(O)=C3C(=O)c4c(O)cccc4[C@@](C)(O)[C@H]3C[C@@H]12; test: Activity of tetracycline efflux transporter TetA(B) in Escherichia coli DH5alpha membrane vesicles assessed as [3H]tetracycline uptake per mg of protein; assay type: cell membranes
[6] = substrate: CN(C)[C@@H]1C(O)=C(C(N)=O)C(=O)[C@@]2(O)C(O)=C3C(=O)c4c(O)cccc4[C@@](C)(O)[C@H]3C[C@@H]12; test: Activity of tetracycline efflux transporter TetA(B) Asp190Cys mutant in Escherichia coli DH5alpha membrane vesicles assessed as [3H]tetracycline uptake per mg of protein; assay type: cell membranes
[7] = substrate: CN(C)[C@@H]1C(O)=C(C(N)=O)C(=O)[C@@]2(O)C(O)=C3C(=O)c4c(O)cccc4[C@@](C)(O)[C@H]3C[C@@H]12; test: Activity of tetracycline efflux transporter TetA(B) Asp190Cys mutant in Escherichia coli DH5alpha membrane vesicles assessed as [3H]tetracycline uptake; assay type: cell membranes

Molecule | MIC [1] [µg/mL] | MIC [2] [µg/mL] | MIC [3] [µg/mL] | Km [4] [µM] | Vmax [5] [pmol/min] | Vmax [6] [pmol/min] | Km [7] [µM]
C[C@H]1c2cccc(O)c2C(=O)C2=C(O)[C@]3(O)C(=O)C(C(N)=O)=C(O)[C@@H](N(C)C)[C@@H]3[C@@H](O)[C@@H]21.O [DOXYCYCLINE] | 14 | 1.25 | 32 | – | – | – | –
CN(C)[C@@H]1C(O)=C(C(N)=O)C(=O)[C@@]2(O)C(O)=C3C(=O)c4c(O)cccc4[C@@](C)(O)[C@H]3C[C@@H]12 [TETRACYCLINE] | 11 (≈ 24.8 µM) | 0.75 (≈ 1.69 µM) | 128 (≈ 288 µM) | – | – | – | –
B1 | – | – | – | 22 | 1270 | – | –
B2 | – | – | – | – | – | 1330 | 83

Reference: ChEMBL document CHEMBL1155147, “Interdomain loop mutation Asp190Cys of the tetracycline efflux transporter TetA(B) decreases affinity for substrate” (2007)
